In assay [1] the target is T1, Prostaglandin G/H synthase 2 (Ovis aries, UniProt P79208).
T1 sequence (P79208 whole entry): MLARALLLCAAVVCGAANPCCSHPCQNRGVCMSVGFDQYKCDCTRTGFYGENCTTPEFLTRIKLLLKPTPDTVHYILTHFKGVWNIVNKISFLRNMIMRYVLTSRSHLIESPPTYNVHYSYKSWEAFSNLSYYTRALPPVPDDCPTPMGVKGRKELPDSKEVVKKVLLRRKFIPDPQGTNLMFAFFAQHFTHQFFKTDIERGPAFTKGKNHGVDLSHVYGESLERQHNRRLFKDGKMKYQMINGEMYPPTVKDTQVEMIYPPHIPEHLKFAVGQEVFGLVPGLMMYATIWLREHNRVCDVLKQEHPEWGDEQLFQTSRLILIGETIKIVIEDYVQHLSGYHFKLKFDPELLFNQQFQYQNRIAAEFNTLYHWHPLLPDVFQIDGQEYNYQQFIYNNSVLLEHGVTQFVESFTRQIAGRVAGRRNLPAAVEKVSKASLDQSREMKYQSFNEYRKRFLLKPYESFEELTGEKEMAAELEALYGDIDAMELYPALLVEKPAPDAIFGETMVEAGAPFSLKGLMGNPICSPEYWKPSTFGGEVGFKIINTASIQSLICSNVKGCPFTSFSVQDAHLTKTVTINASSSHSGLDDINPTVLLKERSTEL
Kind of assay: In Vitro Cyclo-Oxygenase Inhibition Assay. The procedure:
(§1) Inhibition of the enzymes was determined using an enzyme immunoassay (EIA) kit (catalog no. 560101, Cayman Chemical, Ann Arbor, MI, USA) according to the methodology described by Jashim Uddin et al. [Jashim Uddin et al., Bioorg. Med. Chem., 12:5929-40].

In assay [2] the target is T2, Prostaglandin G/H synthase 1 (Ovis aries, UniProt P05979).
T2 sequence (P05979 whole entry): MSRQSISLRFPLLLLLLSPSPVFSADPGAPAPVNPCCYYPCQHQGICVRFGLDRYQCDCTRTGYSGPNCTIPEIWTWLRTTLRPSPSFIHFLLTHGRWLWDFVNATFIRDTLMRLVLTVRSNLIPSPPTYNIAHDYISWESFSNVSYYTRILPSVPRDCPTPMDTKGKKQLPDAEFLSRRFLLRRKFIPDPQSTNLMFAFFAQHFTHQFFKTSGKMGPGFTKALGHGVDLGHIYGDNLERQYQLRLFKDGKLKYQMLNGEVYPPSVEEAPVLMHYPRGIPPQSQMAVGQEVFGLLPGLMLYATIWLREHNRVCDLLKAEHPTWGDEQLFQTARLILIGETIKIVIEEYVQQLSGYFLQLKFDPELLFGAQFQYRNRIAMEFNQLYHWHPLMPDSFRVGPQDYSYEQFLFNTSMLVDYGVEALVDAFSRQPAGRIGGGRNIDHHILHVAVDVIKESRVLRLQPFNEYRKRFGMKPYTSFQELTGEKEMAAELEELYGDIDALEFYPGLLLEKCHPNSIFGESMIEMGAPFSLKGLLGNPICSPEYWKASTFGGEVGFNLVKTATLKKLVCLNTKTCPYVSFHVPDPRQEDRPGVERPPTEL
In words: In Vitro Cyclo-Oxygenase Inhibition Assay. As for the experimental part: as §1

Here are results for four compounds from BindingDB's records for doi:10.3109/14756360903179435 (Jamia Hamdard, 2010).

The term IC50 denotes the concentration at which inhibition is half-maximal. Low values mean higher potency, high ones lower potency.

Take `CC(C)Cc1ccc(C2=C/C(=C\c3c(Cl)cccc3Cl)C(=O)O2)cc1` [3-(2,6-Dichlorobenzylidene)-5-(4-isobutylphenyl)-2(3H)-furanone (13)]: the IC50 in assay [1] amounted to 1.8 µM; in assay [2], 47.6 µM.
The matching figures for `CC(C)Cc1ccc(C2=C/C(=C\c3ccc(F)cc3)C(=O)O2)cc1` [3-(4-Fluorobenzylidene)-5-(4-isobutylphenyl)-2(3H)-furanone (9)]: 3.8 µM and 68.3 µM.
The matching figures for `CC(C)Cc1ccc(C2=C/C(=C\c3ccc(Cl)cc3Cl)C(=O)O2)cc1` [3-(2,4-Dichlorobenzylidene)-5-(4-isobutylphenyl)-2(3H)-furanone (14)]: 2.2 µM and 48.2 µM.
For `CC(C)Cc1ccc(C2=C/C(=C\c3ccccc3Cl)C(=O)O2)cc1` [3-(2-Chlorobenzylidene)-5-(4-isobutylphenyl)-2(3H)-furanone (3)], in that order: 2.4 µM and 52.4 µM.
